Results from US10913742B2, “Oxadiazolones as transient receptor potential channel inhibitors” (Genentech, Inc., priority 2017, dated 2021).

biological target: human TRPA1 (Homo sapiens (Human), UniProt O75762); experiment: hTRPA1 CHO Ca2+ FLIPR assay (block of cinnamaldehyde induced calcium influx); type: cell-based; details: CHO cells expressing TRPA1; 75 uM cinnamaldehyde; Hill coefficient fixed to 1.5; read-out: hTRPA1 (hTRPA1 CHO Ca2+ MAX EVO (IC50))
Experimental: CHO cells expressing TRPA1 were plated into 384-well plates, incubated overnight at 37° C., and loaded with BD calcium indicator dye for 1 hr at 37° C. followed by 15 minutes at room temperature. The assay buffer was Hank's Balanced Salt Solution (HBSS) containing 20 mM HEPES (pH readjusted to 7.4) along with 0.02% BSA.
Following dye load and plate cool down, compounds were added to the cells using FLIPR Tetra. Plates were then incubated with compounds for 20 minutes at room temperature prior to adding agonist.
The IC50 results were fit with a standard Hill function, keeping the Hill coefficient (n) fixed to 1.5. Fixing the Hill coefficient will generally reduce variability of the IC50 determination. The IC50 results were individually examined to make sure the MIN and MAX points were set correctly prior to validation of the results.

Chain of human TRPA1 (O75762 whole entry): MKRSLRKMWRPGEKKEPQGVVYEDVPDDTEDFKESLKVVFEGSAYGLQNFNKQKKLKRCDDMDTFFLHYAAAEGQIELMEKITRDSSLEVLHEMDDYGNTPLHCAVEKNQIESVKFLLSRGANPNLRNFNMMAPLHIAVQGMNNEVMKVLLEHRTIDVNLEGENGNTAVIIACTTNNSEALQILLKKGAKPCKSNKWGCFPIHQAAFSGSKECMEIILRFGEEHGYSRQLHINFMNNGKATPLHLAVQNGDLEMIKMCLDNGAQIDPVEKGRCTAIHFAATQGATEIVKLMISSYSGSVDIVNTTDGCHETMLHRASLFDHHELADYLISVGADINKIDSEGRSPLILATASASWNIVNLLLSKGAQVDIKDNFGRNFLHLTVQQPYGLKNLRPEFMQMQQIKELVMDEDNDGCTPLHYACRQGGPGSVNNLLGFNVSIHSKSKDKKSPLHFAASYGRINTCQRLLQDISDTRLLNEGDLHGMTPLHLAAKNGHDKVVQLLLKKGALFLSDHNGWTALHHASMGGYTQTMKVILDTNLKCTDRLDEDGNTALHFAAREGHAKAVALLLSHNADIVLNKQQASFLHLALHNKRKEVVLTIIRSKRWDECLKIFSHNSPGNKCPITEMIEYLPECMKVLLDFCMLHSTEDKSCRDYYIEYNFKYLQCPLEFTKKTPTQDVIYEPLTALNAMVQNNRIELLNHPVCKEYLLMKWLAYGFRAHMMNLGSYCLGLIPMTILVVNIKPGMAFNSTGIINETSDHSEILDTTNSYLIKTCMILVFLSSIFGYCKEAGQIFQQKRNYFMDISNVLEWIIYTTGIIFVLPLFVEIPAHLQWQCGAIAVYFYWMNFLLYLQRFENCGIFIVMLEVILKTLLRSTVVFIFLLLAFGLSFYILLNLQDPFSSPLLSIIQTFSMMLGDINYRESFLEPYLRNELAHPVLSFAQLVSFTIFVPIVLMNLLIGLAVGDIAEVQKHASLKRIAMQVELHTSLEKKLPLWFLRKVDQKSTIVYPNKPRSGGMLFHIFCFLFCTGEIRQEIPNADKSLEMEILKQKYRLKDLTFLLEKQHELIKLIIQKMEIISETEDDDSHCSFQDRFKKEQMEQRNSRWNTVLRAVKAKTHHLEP

First: Cc1nc(C)n2ncn(Cc3nn(CCc4ccc(Cl)cc4)c(=O)o3)c(=O)c12 [compound 13, 3-(4-chlorophenethyl)-5-((5,7-dimethyl-4-oxoimidazo[1,5-f][1,2,4]triazin-3(4H)-yl)methyl)-1,3,4-oxadiazol-2(3H)-one]
Second: Cn1cc(C#N)c2ncn(Cc3nn(CCc4ccc(Cl)cc4)c(=O)o3)c(=O)c21 [compound 56, 3-((4-(4-chlorophenethyl)-5-oxo-4,5-dihydro-1,3,4-oxadiazol-2-yl)methyl)-5-methyl-4-oxo-4,5-dihydro-3H-pyrrolo[3,2-d]pyrimidine-7-carbonitrile]
The IC50 of the first is 1.6-fold higher: 265 nM for the first, 168 nM for the second.

Compared with `Cn1cnc2ncn(Cc3nn([C@H]4C[C@H](c5ccc(C(F)(F)F)cc5)C4)c(=O)o3)c(=O)c21` [compound 111, 5-[(7-methyl-6-oxo-purin-1-yl)methyl]-3-[3-[4-(trifluoromethyl)phenyl]cyclobutyl]-1,3,4-oxadiazol-2-one], `Cn1cnc2ncn(Cc3nn([C@H]4C[C@H](c5ccccc5)C4)c(=O)o3)c(=O)c21` [compound 51, 5-[(7-methyl-6-oxo-purin-1-yl)methyl]-3-(3-phenylcyclobutyl)-1,3,4-oxadiazol-2-one] is 1.9-fold higher in IC50: 90 nM for the first, 168 nM for the second.

`O=c1c2cccnc2ncn1Cc1nn(C[C@H](F)c2ccc(Cl)cc2)c(=O)o1` (racemic) [compound 95, 5-[(4-oxopyrido[2,3-d]pyrimidin-3-yl)methyl]-3-[rac-(2R)-2-(4-chlorophenyl)-2-fluoro-ethyl]-1,3,4-oxadiazol-2-one] and `C[C@H](Cn1nc(Cn2cnc3ncn(C)c3c2=O)oc1=O)c1ccc(Cl)cc1` [compound 19, (S)-3-(2-(4-chlorophenyl)propyl)-5-((7-methyl-6-oxo-6H-purin-1(7H)-yl)methyl)-1,3,4-oxadiazol-2(3H)-one] are within 1.5-fold of each other in IC50: 48.5 nM for the first, 34 nM for the second.

`Cc1cc(CCn2nc(Cn3cnc4ncn(C)c4c3=O)oc2=O)ccc1Cl` [compound 39, 3-(4-chloro-3-methylphenethyl)-5-((7-methyl-6-oxo-6H-purin-1(7H)-yl)methyl)-1,3,4-oxadiazol-2(3H)-one] and `Cc1ccc(CCn2nc(Cn3cnc4ncn(C)c4c3=O)oc2=O)cc1` [compound 31, 5-[(7-methyl-6-oxo-purin-1-yl)methyl]-3-[2-(p-tolyl)ethyl]-1,3,4-oxadiazol-2-one] are within 1.5-fold of each other in IC50: 113 nM for the first, 126 nM for the second.

Compared with `Cn1cnc2ncn(Cc3nn(C[C@H](F)c4ccc(OC(F)(F)F)cc4)c(=O)o3)c(=O)c21` (racemic) [compound 109, 5-[(7-methyl-6-oxo-purin-1-yl)methyl]-3-[rac-(2R)-2-fluoro-2-[4-(trifluoromethoxy)phenyl]ethyl]-1,3,4-oxadiazol-2-one], `Cn1cnc2ncn(Cc3nn(C[C@H](F)c4ccc(OC(F)F)cc4)c(=O)o3)c(=O)c21` (racemic) [compound 110, 5-[(7-methyl-6-oxo-purin-1-yl)methyl]-3-[rac-(2R)-2-[4-(difluoromethoxy)phenyl]-2-fluoro-ethyl]-1,3,4-oxadiazol-2-one] is 4.3-fold higher in IC50: 19.1 nM for the first, 81.3 nM for the second. The first is the more potent here.

First: O=c1c2c(Cl)ccnc2ncn1Cc1nn([C@H]2C[C@H](c3ccc(Cl)cc3)C2)c(=O)o1 [compound 73, 5-[(5-chloro-4-oxo-pyrido[2,3-d]pyrimidin-3-yl)methyl]-3-[3-(4-chlorophenyl)cyclobutyl]-1,3,4-oxadiazol-2-one]
Second: Cc1noc2ncn(Cc3nn([C@H]4C[C@H](c5ccc(Cl)cc5)C4)c(=O)o3)c(=O)c12 [compound 91, 5-[[4-[3-(4-chlorophenyl)cyclobutyl]-5-oxo-1,3,4-oxadiazol-2-yl]methyl]-3-methyl-isoxazolo[5,4-d]pyrimidin-4-one]
The IC50 of the first is 6.2-fold lower: 5.88 nM for the first, 36.2 nM for the second. The first is the more potent here.

First: Cn1cnc2ncn(Cc3nn(C[C@@H]4CCc5ccc(Cl)cc54)c(=O)o3)c(=O)c21 [compound 48]
Second: Cn1cnc2ncn(Cc3nn(CCc4ccc(Cl)cc4F)c(=O)o3)c(=O)c21 [compound 41, 3-(4-chloro-2-fluorophenethyl)-5-((7-methyl-6-oxo-6H-purin-1(7H)-yl)methyl)-1,3,4-oxadiazol-2(3H)-one]
The IC50 of the first is 2.5-fold lower: 196 nM for the first, 492 nM for the second. The first is the more potent here.

Going from `Cn1cnc2ncn(Cc3nn([C@H]4C[C@](F)(c5ccc(Cl)cc5)C4)c(=O)o3)c(=O)c21` [compound 105, trans-3-[3-(4-chlorophenyl)-3-fluoro-cyclobutyl]-5-[(7-methyl-6-oxo-purin-1-yl)methyl]-1,3,4-oxadiazol-2-one] to `Cc1ccnc2ncn(Cc3nn([C@H]4C[C@](F)(c5ccc(Cl)cc5)C4)c(=O)o3)c(=O)c12` [compound 104, 3-[3-(4-chlorophenyl)-3-fluoro-cyclobutyl]-5-[(5-methyl-4-oxo-pyrido[2,3-d]pyrimidin-3-yl)methyl]-1,3,4-oxadiazol-2-one], the IC50 falls from 64 nM to 29.6 nM (2.2-fold).

`Cn1cnc2ncn(Cc3nn([C@H]4C[C@H](c5ccc(Cl)c(F)c5)C4)c(=O)o3)c(=O)c21` [compound 106, 3-[3-(4-chloro-3-fluoro-phenyl)cyclobutyl]-5-[(7-methyl-6-oxo-purin-1-yl)methyl]-1,3,4-oxadiazol-2-one] and `Cn1cnc2ncn(Cc3nn([C@H]4C[C@H](c5cccc(Cl)c5)C4)c(=O)o3)c(=O)c21` [compound 53, 3-[3-(3-chlorophenyl)cyclobutyl]-5-[(7-methyl-6-oxo-purin-1-yl)methyl]-1,3,4-oxadiazol-2-one] are within 1.5-fold of each other in IC50: 29.9 nM for the first, 44 nM for the second.

First: Cn1cnc2ncn(Cc3nn(CC(F)c4ccc5ccccc5c4)c(=O)o3)c(=O)c21 (stereo in doubt) [compound 38, 5-[(7-methyl-6-oxo-purin-1-yl)methyl]-3-[(2S)-2-fluoro-2-(2-naphthyl)ethyl]-1,3,4-oxadiazol-2-one]
Second: Cn1cnc2ncn(Cc3nn(C[C@H](F)c4cccc(Cl)c4)c(=O)o3)c(=O)c21 (racemic) [compound 84, 5-[(7-methyl-6-oxo-purin-1-yl)methyl]-3-[rac-(2R)-2-(3-chlorophenyl)-2-fluoro-ethyl]-1,3,4-oxadiazol-2-one]
The IC50 of the first is 24-fold lower: 7 nM for the first, 166 nM for the second. The first is the more potent here.

Compared with `Cc1ccnc2ncn(Cc3nn([C@@H]4CC[C@@H](c5ccc(F)cc5)C4)c(=O)o3)c(=O)c12` (racemic) [compound 67, 5-[(5-methyl-4-oxo-pyrido[2,3-d]pyrimidin-3-yl)methyl]-3-[rac-(1R,3R)-3-(4-fluorophenyl)cyclopentyl]-1,3,4-oxadiazol-2-one], `Cn1cnc2ncn(Cc3nn([C@@H]4CC[C@@H](c5cccc(F)c5)C4)c(=O)o3)c(=O)c21` (racemic) [compound 76, 5-[(7-methyl-6-oxo-purin-1-yl)methyl]-3-[rac-(1R,3R)-3-(3-fluorophenyl)cyclopentyl]-1,3,4-oxadiazol-2-one] is 16-fold higher in IC50: 4.76 nM for the first, 75.8 nM for the second. The first is the more potent here.

Going from `Cn1cnc2cnn(Cc3nn(CCc4ccc(Cl)cc4)c(=O)o3)c(=O)c21` [compound 35, 3-[2-(4-chlorophenyl)ethyl]-5-[(3-methyl-4-oxo-imidazo[4,5-d]pyridazin-5-yl)methyl]-1,3,4-oxadiazol-2-one] to `Cc1cncc2ncn(Cc3nn(CCc4ccc(Cl)cc4)c(=O)o3)c(=O)c12` [compound 6, 3-(4-chlorophenethyl)-5-((5-methyl-4-oxopyrido[3,4-d]pyrimidin-3(4H)-yl)methyl)-1,3,4-oxadiazol-2(3H)-one], the IC50 falls from 96 nM to 13 nM (7.4-fold). The second is the more potent here.

First: Cn1cnc2c(C#N)nn(Cc3nc(CCc4ccc(Cl)cc4)no3)c2c1=O [compound 30, 1-[[3-[2-(4-chlorophenyl)ethyl]-1,2,4-oxadiazol-5-yl]methyl]-6-methyl-7-oxo-pyrazolo[4,3-d]pyrimidine-3-carbonitrile]
Second: Cc1cc(C#N)nc2ncn(Cc3nn(CCc4ccc(Cl)cc4)c(=O)o3)c(=O)c12 [compound 28, 3-((4-(4-chlorophenethyl)-5-oxo-4,5-dihydro-1,3,4-oxadiazol-2-yl)methyl)-5-methyl-4-oxo-3,4-dihydropyrido[2,3-d]pyrimidine-7-carbonitrile]
The IC50 of the first is 3-fold higher: 26.6 nM for the first, 9 nM for the second. The second is the more potent here.

Going from `Cc1cc(C#N)nc2ncn(Cc3nn([C@H]4C[C@H](c5ccc(Cl)cc5)C4)c(=O)o3)c(=O)c12` [compound 93, trans-3-[[4-[3-(4-chlorophenyl)cyclobutyl]-5-oxo-1,3,4-oxadiazol-2-yl]methyl]-5-methyl-4-oxo-pyrido[2,3-d]pyrimidine-7-carbonitrile] to `Cc1cc(C#N)nc2ncn(Cc3nn([C@H]4C[C@](F)(c5ccc(F)cc5)C4)c(=O)o3)c(=O)c12` [compound 61, 3-[[4-[3-fluoro-3-(4-fluorophenyl)cyclobutyl]-5-oxo-1,3,4-oxadiazol-2-yl]methyl]-5-methyl-4-oxo-pyrido[2,3-d]pyrimidine-7-carbonitrile], the IC50 rises from 4.84 nM to 11.2 nM (2.3-fold).

`Cn1cnc2ncn(Cc3nn([C@H]4C[C@H](Oc5cccc(Cl)c5)C4)c(=O)o3)c(=O)c21` [compound 70, trans-3-[3-(3-chlorophenoxy)cyclobutyl]-5-[(7-methyl-6-oxo-purin-1-yl)methyl]-1,3,4-oxadiazol-2-one] and `Cn1cnc2ncn(Cc3nn(CCCOc4cccc(Cl)c4)c(=O)o3)c(=O)c21` [compound 86, 1-([4-[3-(3-chlorophenoxy)propyl]-5-oxo-4,5-dihydro-1,3,4-oxadiazol-2-yl]methyl)-7-methyl-6,7-dihydro-1H-purin-6-one] are within 1.5-fold of each other in IC50: 17.7 nM for the first, 22.6 nM for the second.

Going from `Cc1ccnc2ncn(Cc3nn(CCc4ccc(Cl)cc4)c(=O)o3)c(=O)c12` [compound 7, 3-[2-(4-chlorophenyl)ethyl]-5-[(5-methyl-4-oxo-pyrido[2,3-d]pyrimidin-3-yl)methyl]-1,3,4-oxadiazol-2-one] to `Cn1cnc2ncn(Cc3nn(CCc4ccc(C#N)cc4)c(=O)o3)c(=O)c21` [compound 5, 4-(2-(5-((7-methyl-6-oxo-6H-purin-1(7H)-yl)methyl)-2-oxo-1,3,4-oxadiazol-3(2H)-yl)ethyl)benzonitrile], the IC50 rises from 12 nM to 1170 nM (98-fold).
